Like-named read-outs stand apart in the source and are kept apart here.
How the values were obtained:
[1] = target: [^3 H]-Spiroperidol binding (receptor); experiment: Inhibition of [3H]-spiroperidol binding (receptor assay, Grigoriadis and Seeman)
Experimental: (§1) The compounds of Formula I are valuable dopaminergic agents. […] Thus, the compounds of Formula I were tested for their ability to inhibit locomotor activity in mice according to the assay described by J. R. McLean, et al, Pharmacoloqy, Biochemistry and Behavior, Volume 8, pages 97-99 (1978); for their ability to inhibit [^3 H]-spiroperidol binding in a receptor assay described by D. Grigoriadis and P. Seeman, Journal of Neurochemistry, Volume 44, Pages 1925-1935 (1985); and for their ability to inhibit dopamine synthesis in rats according to the protocol described by J. R. Walters and R. H. Roth, Naunyn-Schmiedeberg's Archives of Pharmacology, Volume 296, pages 5-14 (1976). The above test methods are incorporated herein by reference. The data in the table show the dopaminergic activity of representative compounds of Formula I. Additionally, compounds of Formula I are ligands for the sigma opiate binding site. The data in the table show the inhibition of [^3 H]DTG ([…], a sigma ligand) binding by representative compounds of Formula I, according to the method of E. Weber, et al. Proceedings of the National Academy of Sciences, USA, Volume 83, Pages 8784-8788 (1986).

mice = experiment: Inhibition of locomotor activity in mice (McLean et al.); assay type: in vivo; conditions: Mus musculus, read-out: Inhibition of Locomotor Activity in Mice ED50
Experimental: as §1

[2] = test system: Brain Striatal Dopamine Synthesis; experiment: Inhibition of brain striatal dopamine synthesis in rats (Walters and Roth); assay type: in vivo; conditions: Rattus norvegicus, IP, read-out: Effects on Brain Striatal Dopamine Synthesis in Rats, inhibition
Experimental: as §1

[3] = target: sigma opiate binding site; experiment: Inhibition of [3H]DTG (ditoluoylguanidine) binding (Weber et al.)
Experimental: as §1

Structure (SMILES): C1=C(c2cccs2)CCC(CN2CCN(c3ccccn3)CC2)C1 (racemic) [Example 2b, (±)-1-(2-Pyridinyl)-4-[[4-(2-thienyl)-3-cyclohexen-1-yl]methyl]-piperazine]
- IC50 [1]: 2430 nM
- ED50 (mice; mice, IP): < 30 mg/kg

Structure (SMILES): Fc1ccc(C2=CCC(CCN3CCN(c4ccccn4)CC3)CC2)cc1 (racemic) [Example 2e, (±)-1-[2-[4-(4-Fluorophenyl)-3-cyclohexen-1-yl]ethyl]-4-(2-pyridinyl)piperazine]
- inhibition at 10 mg/kg [2]: 23%
- IC50 [1]: 365 nM
- ED50 (mice; mice, IP): 2.9 mg/kg
- IC50 [3]: 20 nM

Structure (SMILES): C1=C(c2ccccc2)CCC(CCN2CCN(c3ccccn3)CC2)C1 (racemic) [Example 2d, (±)-1-[2-(4-Phenyl-3-cyclohexen-1-yl)ethyl]-4-(2-pyridinyl)piperazine]
- inhibition at 10 mg/kg [2]: 48%
- IC50 [1]: 409 nM
- ED50 (mice; mice, IP): 1.9 mg/kg
- IC50 [3]: 23 nM

Structure (SMILES): C1=C(c2ccccc2)CCC(N2CCN(c3ccccn3)CC2)C1 (racemic) [Example 2a, (±)-1-(4-Phenyl-3-cyclohexen-1-yl)-4-(2-pyridinyl)piperazine]
- IC50 [1]: 599 nM
- ED50 (mice; mice, IP): 1 mg/kg

Structure (SMILES): C1=C(c2ccccn2)CCC(CCN2CCN(c3ccccn3)CC2)C1 (racemic) [Example 1b, (±)-1-(2-Pyridinyl)-4-[2-[4-(2-pyridinyl)-3-cyclohexen-1-yl]ethyl]piperazine]
- IC50 [1]: 128 nM
- ED50 (mice; mice, IP): 0.4 mg/kg
- IC50 [3]: 39 nM

Structure (SMILES): C1=C(c2cccs2)CCC(N2CCN(c3ccccn3)CC2)C1 (racemic) [Example 2, (±)-1-(2-Pyridinyl)-4-[4-(2-thienyl)-3-cyclohexen-1-yl]-piperazine]
- IC50 [1]: 352 nM
- ED50 (mice; mice, IP): 9.3 mg/kg

Structure (SMILES): C1=C(c2cccs2)CCC(CCN2CCN(c3ccccn3)CC2)C1 (racemic) [Example 2c, (±)-1-(2-Pyridinyl)-4-[2-[4-(2-thienyl)-3-cyclohexen-1-yl]ethyl]-piperazine]
- inhibition at 10 mg/kg [2]: 46%
- ED50 (mice; mice, IP): 8.4 mg/kg
- IC50 [3]: 39 nM

Structure (SMILES): C1=C(c2ccccc2)CCN(C2CC=C(c3ccccn3)CC2)C1 (racemic) [Example 3, (±)-2-[4-(3,6-Dihydro-4-phenyl-1(2H)-pyridinyl)-1-cyclohexen-1-yl]pyridine]
- IC50 [1]: 296 nM
- ED50 (mice; ip): 2 mg/kg

Structure (SMILES): C1=C(c2ccccn2)CCC(N2CCN(c3ccccn3)CC2)C1 (racemic) [Example 1a, (±)-1-(2-Pyridinyl)-4-[4-(2-pyridinyl)-3-cyclohexen-1-yl]-piperazine]
- inhibition at 10 mg/kg [2]: 75%
- IC50 [1]: 1180 nM
- ED50 (mice; mice, IP): 0.9 mg/kg

Structure (SMILES): C1=C(c2cccnc2)CCC(N2CCN(c3ccccn3)CC2)C1 (racemic) [Example 1, (±)-1-(2-Pyridinyl)-4-[4-(3-pyridinyl)-3-cyclohexen-1-yl]piperazine]
- inhibition at 10 mg/kg [2]: 100%
- IC50 [1]: 188 nM
- ED50 (mice; mice, IP): 0.1 mg/kg

Structure (SMILES): C1=C(c2nccs2)CCC(CCN2CCN(c3ccccn3)CC2)C1 (racemic) [Example 2f, (±)-1-(2-Pyridinyl)-4-[2-[4-(2-thiazolyl)-3-cyclohexen1-yl]-ethyl]piperazine]
- inhibition at 10 mg/kg [2]: 77%
- IC50 [1]: 267 nM
- ED50 (mice; mice, IP): 0.8 mg/kg
- IC50 [3]: 98 nM

Structure (SMILES): C1=C(c2ccccc2)CCN(CCC2CC=C(c3cccs3)CC2)C1 (racemic) [Example 2g, (±)-1,2,3,6-Tetrahydro-4-phenyl-1-[2-[4-(2-thienyl)-3-cyclohexen-1-yl]ethyl]pyridine]
- IC50 [1]: 32 nM
- ED50 (mice; ip): 3 mg/kg
- IC50 [3]: 2 nM
